Assay results: article PMC10046095 (2023)
One block for each molecule: values may come before it.

Experiments:
[1] = tested on: a-TCmu (RNA, aptamer) GGGCCUAAAACAUACCAGAUCGCCACCCGCGCUUUAAUCUGGAGAGGUGAAGAAUACGACCACCUAGGCUC; assay: fluorescence titration (intrinsic tetracycline fluorescence); details: 100 mM NaCl, 10 mM MgCl2; 20 mM potassium phosphate pH 7.5, 25 °C; fluorescence yield up about 12 times
[2] = tested on: a-TC40 (amino, on DynaEpoxy) (DNA, aptamer) GTTTGTGTATTACAGTTATGTTACCCTCATTTTTCTGAAC; assay: bead capture, HPLC; details: room temperature, 1 h; capture significantly higher than nonsense aptamer
[3] = tested on: a-TC76 (DNA, aptamer) CGTACGGAATTCGCTAGCCCCCCGGCAGGCCACGGCTTGGGTTGGTCCCACTGCGCGTGGATCCGAGCTCCACGTG; assay: equilibrium filtration, HPLC; details: 100 mM NaCl, 5 mM KCl, 2 mM MgCl2, 1 mM CaCl2; 20 mM Tris/HCl pH 7.6 (binding buffer listed for TC)
[4] = tested on: a-TC40 (DNA, aptamer) GTTTGTGTATTACAGTTATGTTACCCTCATTTTTCTGAAC; assay: equilibrium filtration, HPLC; details: 100 mM NaCl, 5 mM KCl, 2 mM MgCl2, 1 mM CaCl2; 20 mM Tris/HCl pH 7.6 (binding buffer listed for TC); filter leakage 0.53
[5] = tested on: a-TC8 (amino, on DynaEpoxy) (DNA, aptamer) CGGTGGTG; assay: bead capture, HPLC; details: room temperature, 1 h; capture significantly higher than nonsense aptamer
[6] = tested on: a-TCmu (RNA, aptamer) GGGCCUAAAACAUACCAGAUCGCCACCCGCGCUUUAAUCUGGAGAGGUGAAGAAUACGACCACCUAGGCUC; assay: equilibrium filtration, HPLC; details: Na+ 100 mM; Mg2+ 10 mM; K+ (20 mM potassium phosphate buffer); 20 mM potassium phosphate pH 7.5 (presumed)
[7] = tested on: a-TCmu (biotinylated, on DynaSA) (RNA, aptamer) GGGCCUAAAACAUACCAGAUCGCCACCCGCGCUUUAAUCUGGAGAGGUGAAGAAUACGACCACCUAGGCUC; assay: bead capture, HPLC; details: room temperature, 1 h; eluted with 2 M NaCl and 80 °C
[8] = tested on: a-SDM (DNA, aptamer) GAGGGCAACGAGTGTTTATAGA; assay: equilibrium filtration (3 kD filter), HPLC; details: 50 mM NaCl, 5 mM KCl, 5 mM MgCl2; 20 mM Tris/HCl pH 8 (BBSDM)
[9] = tested on: a-SMZ (DNA, aptamer) TTAGCTTATGCGTTGGCCGGGATAAGGATCCAGCCGTTGTAGATTTGCGTTCTAACTCTC; assay: equilibrium filtration, HPLC; details: 100 mM NaCl, 5 mM KCl, 2 mM MgCl2, 1 mM CaCl2; 20 mM Tris/HCl pH 7.6 (binding buffer listed for SMZ); highest aptamer 2.5 µM
[10] = tested on: a-SMZ-b (on DynaSA) (DNA, aptamer) TTAGCTTATGCGTTGGCCGGGATAAGGATCCAGCCGTTGTAGATTTGCGTTCTAACTCTC; assay: bead capture, HPLC; details: room temperature, 1 h; around 2% captured, no elution, data not shown

k [1]: ~ 60 nM
k [3]: 14 µM
binding [5]: yes
k [6]: 64 nM
binding [7]: yes
Structure (SMILES): CN(C)[C@@H]1C(=O)C(C(N)=O)=C(O)[C@@]2(O)C(=O)C3=C(O)c4c(O)cccc4[C@@](C)(O)[C@H]3C[C@@H]12
binding [2]: yes
k [4]: 100 nM

binding [8]: no
Structure (SMILES): COc1cc(NS(=O)(=O)c2ccc(N)cc2)nc(OC)n1

k [9]: > 2.5 µM
binding [10]: weak
Structure (SMILES): Cc1cc(C)nc(NS(=O)(=O)c2ccc(N)cc2)n1
